The test system of test [1] is patients with FXS and comorbid ASD. The test can be described thus: Pooled placebo-controlled data: Week 12 change in ABC-C Irritability, 156 subjects. Conditions: subgroup comparison. The class given is in vivo, human. An excerpt: The data collected from the studies presented herein, and other similar studies were pooled together and analyzed. […] The subjects had moderate to severe symptoms of ASD (ADOS-2, comparison score greater than, or equal to, 5). The data presented in Table 2 is the Week 12 change in ABC-C Irritability of all patients. In previous studies (such as presented in Example 1, Table 1) the data was enriched by removing the non-completers from the analysis and only presenting data from the completers.

For test [2], the system named is children and adolescents with autism spectrum disorder. The test is described as follows: BRIGHT study: open-label safety, tolerability and efficacy study of ZYN002 transdermal gel, 14 weeks. Type of test: in vivo, human. Particulars: subgroup comparison. On the procedure:
An exploratory open-label safety, tolerability and efficacy study of Zygel™ ZYNO02 transdermal gel to 37 children and adolescents with autism spectrum disorder was conducted. The patient population (ages 4 through 17 years old) were predominantly moderate-to-severe ASD patients. ASD was confirmed by Diagnostic and Statistical Manual of Mental Disorders, 5th edition (DSM-5) diagnostic criteria to assess the safety and efficacy of ZYNO02 in treating ASD-related behaviors as measured by a variety of efficacy assessments. These included the Aberrant Behavior Checklist-Community (ABC-C); the Autism Diagnostic Observation Schedule®, 2nd Edition (ADOS-2); and the Parent Rated Anxiety Scale-Autism Spectrum Disorder (PRAS-ASD). ZYNO02 was administered to patients with moderate-to-severe symptoms of ASD as add-on therapy to their standard of care.
The majority of the patients were male (92%) with a mean age of 9.2 years. […] The majority of patients had moderate or severe ASD at baseline as measured by the ADOS®-2 comparison score (94%) and Diagnostic and Statistical Manual of Mental Disorders, 5th edition, severity levels (92%). […]
The trial evaluated multiple efficacy assessments, including the ABC-C, PRAS-ASD, Autism Parenting Stress Index, Autism Impact Measure (AIM), and Clinical Global Impression-Severity (CGI-S) and Improvement (CGI-I). […]

For `C=C(C)C1CCC(C)=CC1c1c(O)cc(CCCCC)cc1O` (centres unmarked) [CBD, 2-[3-methyl-6-(1-methylethenyl)-2-cyclohexen-1-yl]-5-pentyl-1,3-benzenediol], the “improvement in irritability, ABC-CFXS Social Avoidance score > 7 compared to ≤ 7” value in test [1] was “twice as much improvement in irritability”. Also, the “improvement in irritability, PRAS score > 37 compared to ≤ 37” value in test [2] is reported as “twice as much improvement in irritability”.

For the origin of these results see patent publication US20240342198A1, “TREATMENT OF IR[…] SUBJECTS WITH AUTISM SPECTRUM DISORDERS WITH MODERATE TO SEVERE ANXIETY AND/OR SOCIAL AVOIDANCE” (ZYNERBA PHARMACEUTICALS, INC., priority 2021, published 2024).
